Experimental data published in PubChem BioAssay AID256 (DTP/NCI, 2004).
Values joined by “and” are separate entries in the source; they are usually repeats but may differ in a detail not shown here. Identical values can stand only once. Toxic doses and inconclusive results are not listed. The calls were made as follows: active = survival T/C of 150% or more; inactive = T/C below 125% in these data.

System: CD2F1 mice, L1210 leukemia ip, survival T/C
Experiment: NCI In Vivo Anticancer Drug Screen. Data for tumor model L1210 Leukemia (intraperitoneal) in CD2F1 (CDF1) mice
Settings: endpoint: mean survival time, higher = longer survival
Outline: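 Read-out first: treated-group measurement over vehicle-control measurement, expressed as a ratio. Animals bore a transplanted tumor line and were dosed with compound or vehicle.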

[1] = dose: 100.0 mg/kg/injection, schedule: Q04DX003 (ip), vehicle: saline with Tween-80
[2] = dose: 200.0 mg/kg/injection, schedule: Q04DX003 (ip), vehicle: saline with Tween-80
[3] = dose: 400.0 mg/kg/injection, schedule: Q04DX003 (ip), vehicle: saline with Tween-80
[4] = dose: 100.0 mg/kg/injection, schedule: Q01DX009 (ip), vehicle: saline with Tween-80
[5] = dose: 200.0 mg/kg/injection, schedule: Q01DX009 (ip), vehicle: saline with Tween-80
[6] = dose: 400.0 mg/kg/injection, schedule: Q01DX009 (ip), vehicle: saline with Tween-80
[7] = dose: 100.0 mg/kg/injection, schedule: Q04DX002 (ip), vehicle: saline with Tween-80
[8] = dose: 200.0 mg/kg/injection, schedule: Q04DX002 (ip), vehicle: saline with Tween-80
[9] = dose: 400.0 mg/kg/injection, schedule: Q04DX002 (ip), vehicle: saline with Tween-80
[10] = dose: 100.0 mg/kg/injection, schedule: Q01DX001 (ip), vehicle: saline with Tween-80
[11] = dose: 200.0 mg/kg/injection, schedule: Q01DX001 (ip), vehicle: saline with Tween-80
[12] = dose: 400.0 mg/kg/injection, schedule: Q01DX001 (ip), vehicle: saline with Tween-80
[13] = dose: 50.0 mg/kg/injection, schedule: Q01DX009 (ip), vehicle: saline with Tween-80
[14] = dose: 25.0 mg/kg/injection, schedule: Q01DX009 (ip), vehicle: saline with Tween-80

Measured: T/C

COc1cc2c(c(OC)c1OC)-c1ccc(OC)c(=O)cc1C(=O)CC2
inactive: dose: 5.0 mg/kg/injection, schedule: Q01DX Z (ip), vehicle: saline 121 % of control | dose: 7.0 mg/kg/injection, schedule: Q01DX Z (ip), vehicle: saline 121 % of control | dose: 10.0 mg/kg/injection, schedule: Q01DX Z (ip), vehicle: saline 114 % of control

CCOC(=O)CCC[P+](c1ccccc1)(c1ccccc1)c1ccccc1
inactive: [1] 100 % of control | [2] 100 % of control | [3] 98 % of control

CCC(NC(=O)OCc1ccccc1)C(=O)O (centres undefined)
inactive: [4] 88 % of control | [5] 90 % of control | [6] 90 % of control

CCN(CC)CC[C-]=O.[NH-]CC[NH-].[Pd]
inactive: dose: 3.13 mg/kg/injection, schedule: Q04DX003 (ip), vehicle: water 101 % of control | dose: 6.25 mg/kg/injection, schedule: Q04DX003 (ip), vehicle: water 101 % of control | dose: 12.5 mg/kg/injection, schedule: Q04DX003 (ip), vehicle: water 101 % of control | dose: 25.0 mg/kg/injection, schedule: Q04DX003 (ip), vehicle: water 93 % of control | dose: 50.0 mg/kg/injection, schedule: Q04DX003 (ip), vehicle: water 93 % of control

OC(c1c(F)c(F)c(C(O)(C(F)(F)F)C(F)(F)F)c(F)c1F)(C(F)(F)F)C(F)(F)F
inactive: [1] 96 % of control | [2] 104 % of control | [3] 96 % of control

Cc1cccc(OP(N)(=O)Oc2cccc(C)c2)c1
inactive: [7] 96 % of control | [8] 96 % of control | [9] 96 % of control

FC(F)(F)c1cccc(NC2=NCCS2)c1
inactive: dose: 12.5 mg/kg/injection, schedule: Q01DX001 (ip), vehicle: saline with Tween-80 106 % of control | dose: 25.0 mg/kg/injection, schedule: Q01DX001 (ip), vehicle: saline with Tween-80 110 % of control | dose: 50.0 mg/kg/injection, schedule: Q01DX001 (ip), vehicle: saline with Tween-80 101 % of control | [10] 110 % of control | [11] 106 % of control | [12] 105 % of control

O=C1C(=O)c2ccccc2-c2ccccc21.O=C1C(=O)c2ccccc2-c2ccccc21.[Hg]
inactive: dose: 1.56 mg/kg/injection, schedule: Q04DX002 (ip), vehicle: saline with Tween-80 87 % of control | dose: 3.13 mg/kg/injection, schedule: Q04DX002 (ip), vehicle: saline with Tween-80 98 % of control | dose: 6.25 mg/kg/injection, schedule: Q04DX002 (ip), vehicle: saline with Tween-80 113 % of control

O=S1(=O)c2ccccc2Oc2ccccc21
inactive: [4] 97 % of control | [5] 107 % of control | [6] 95 % of control

O=C(O)CCCC(=O)C1CCCCC1
inactive: [13] 103 % of control | [4] 103 % of control | [1] 95 % of control | [5] 98 % of control | [2] 90 % of control

Nc1nc(-c2ccccc2)nc2[nH]ncc12
inactive: [10] 95 % of control | [11] 95 % of control | [12] 89 % of control

O=C1CCc2ccccc2C1C(=O)CC(O)(c1ccccc1)c1ccccc1 (centres undefined)
inactive: [1] 100 % of control | [2] 102 % of control

CC(C)c1cc2cc(Br)ccc2o1
inactive: dose: 100.0 mg/kg/injection, schedule: Q01DX001 (ip), vehicle: saline 103 % of control | dose: 200.0 mg/kg/injection, schedule: Q01DX001 (ip), vehicle: saline 95 % of control

COC(=O)C(C(=O)OC)=C(C(=O)OC)C(=O)OC
inactive: [4] 96 % of control | [5] 96 % of control | [6] 94 % of control

O=c1ccn(C2OC(CO)C(O)C2C[N+](=O)[O-])c(=O)[nH]1 (centres undefined)
inactive: dose: 12.5 mg/kg/injection, schedule: Q01DX005 (ip), vehicle: water 96 % of control | dose: 25.0 mg/kg/injection, schedule: Q01DX005 (ip), vehicle: water 97 % of control | dose: 50.0 mg/kg/injection, schedule: Q01DX005 (ip), vehicle: water 94 % of control | dose: 100.0 mg/kg/injection, schedule: Q01DX005 (ip), vehicle: water 91 % of control | dose: 200.0 mg/kg/injection, schedule: Q01DX005 (ip), vehicle: water 88 % of control

O=C(Nc1ccc(F)c(Cl)c1)N(CCO)C1CCCCC1
inactive: dose: 50.0 mg/kg/injection, schedule: Q01DX009 (ip), vehicle: Klucel (hydroxypropylcellulose) (HPC) 91 % of control | dose: 100.0 mg/kg/injection, schedule: Q01DX009 (ip), vehicle: Klucel (hydroxypropylcellulose) (HPC) 102 % of control | dose: 200.0 mg/kg/injection, schedule: Q01DX009 (ip), vehicle: Klucel (hydroxypropylcellulose) (HPC) 95 % of control

CC(C)c1ccc(C(=O)O)cc1S(=O)(=O)Cl
inactive: dose: 25.0 mg/kg/injection, schedule: Q04DX003 (ip), vehicle: saline 98 % of control | dose: 50.0 mg/kg/injection, schedule: Q04DX003 (ip), vehicle: saline 109 % of control | dose: 100.0 mg/kg/injection, schedule: Q04DX003 (ip), vehicle: saline 100 % of control and 107 % of control

N=C(N)c1cccc(NC(=O)CCc2ccccc2)c1
inactive: [10] 97 % of control | [11] 93 % of control | [12] 92 % of control

OCCN1CCSC1=S
inactive: [1] 101 % of control | [2] 97 % of control | [3] 92 % of control

CC(=O)OC1C(O)C(O)C(OC(C)=O)C(OC(C)=O)C1OC(C)=O (centres undefined)
inactive: dose: 100.0 mg/kg/injection, schedule: Q01DX009 (ip), vehicle: saline 102 % of control | dose: 200.0 mg/kg/injection, schedule: Q01DX009 (ip), vehicle: saline 102 % of control | dose: 400.0 mg/kg/injection, schedule: Q01DX009 (ip), vehicle: saline 98 % of control

CC(C)N(C(=S)S)C(C)C
inactive: [1] 101 % of control | [2] 100 % of control | [3] 92 % of control

CN(C)c1ccc(/C=C2N=C(/C=C\c3ccccc3)OC\2=O)cc1
inactive: [7] 98 % of control | [8] 94 % of control | [9] 105 % of control

COc1ccc(C=Nc2ccccc2)cc1
inactive: [4] 95 % of control | [5] 89 % of control | [6] 89 % of control

CC(=O)/C(C)=C\c1ccccc1
inactive: [4] 96 % of control | [1] 92 % of control | [5] 94 % of control | [2] 94 % of control | [6] 98 % of control | [3] 94 % of control

ClC1CC[N-]CC1.ClC1CC[N-]CC1.O=C(O)CC(=O)O.[Pt+2]
inactive: dose: 12.5 mg/kg/injection, schedule: Q01DX009 (ip), vehicle: saline with Tween-80 96 % of control | [14] 94 % of control | [13] 102 % of control | [4] 104 % of control | [5] 96 % of control

CC(C)NCC(O)COc1cccc2ccccc12 (centres undefined)
inactive: dose: 4.0 mg/kg/injection, schedule: Q01DX009 (ip), vehicle: Klucel (hydroxypropylcellulose) (HPC) 94 % of control and 98 % of control and 103 % of control | dose: 8.0 mg/kg/injection, schedule: Q01DX009 (ip), vehicle: Klucel (hydroxypropylcellulose) (HPC) 94 % of control and 95 % of control and 98 % of control | dose: 16.0 mg/kg/injection, schedule: Q01DX009 (ip), vehicle: Klucel (hydroxypropylcellulose) (HPC) 91 % of control and 96 % of control and 101 % of control | dose: 32.0 mg/kg/injection, schedule: Q01DX009 (ip), vehicle: Klucel (hydroxypropylcellulose) (HPC) 87 % of control and 93 % of control and 96 % of control | dose: 64.0 mg/kg/injection, schedule: Q01DX009 (ip), vehicle: Klucel (hydroxypropylcellulose) (HPC) 84 % of control and 102 % of control and 105 % of control | dose: 128.0 mg/kg/injection, schedule: Q01DX009 (ip), vehicle: Klucel (hydroxypropylcellulose) (HPC) 120 % of control

Nc1cccc2nc3ccccc3cc12
inactive: [4] 93 % of control | [1] 92 % of control | [5] 95 % of control | [2] 94 % of control | [3] 91 % of control

CC(NC1=C(Cl)C(=O)c2ccccc2C1=O)c1ccccc1 (centres undefined)
inactive: dose: 25.0 mg/kg/injection, schedule: Q04DX003 (ip), vehicle: saline with Tween-80 102 % of control | dose: 50.0 mg/kg/injection, schedule: Q04DX003 (ip), vehicle: saline with Tween-80 96 % of control | [1] 95 % of control

Clc1ccc2c(c1)Cc1cc(N(CCBr)CCBr)ccc1-2
inactive: [4] 104 % of control | [5] 106 % of control | [6] 110 % of control

Cc1ccc2[nH]c3c(c2c1)CSCC3
inactive: [4] 104 % of control | [5] 102 % of control | [6] 102 % of control

ClCCCC1(CCCCl)OCCO1
inactive: [7] 101 % of control | [8] 97 % of control | [9] 104 % of control

c1ccc(C[n+]2cccc3ccccc32)cc1
inactive: dose: 5.0 mg/kg/injection, schedule: Q04DX003 (ip), vehicle: saline with Tween-80 101 % of control | dose: 10.0 mg/kg/injection, schedule: Q04DX003 (ip), vehicle: saline with Tween-80 98 % of control | dose: 20.0 mg/kg/injection, schedule: Q04DX003 (ip), vehicle: saline with Tween-80 98 % of control

CCCCNC(=O)C1C2CCC(C2)C1C(=O)NCCCC (centres undefined)
inactive: [1] 98 % of control | [2] 98 % of control | [3] 90 % of control

Cc1cccc(C)c1NC(=S)NNC(=O)c1ccncc1
inactive: [14] 101 % of control | [13] 97 % of control | [4] 92 % of control
